Assay results reported in US12643891B2, “SPAK/OSR inhibitors and methods of using same” (YALE UNIVERSITY, priority 2019, dated 2026).

Assays:
GBM612 cells = assay: On target activity in GBM612 cells (Western blot); assay type: cell-based, human; settings: on target activity in GBM cells
SPAK [1] = molecular target: T1, SPAK (Homo sapiens, UniProt Q9UEW8); assay: In vitro SPAK ELISA assay monitoring NKCC1 phosphorylation (T^PNKCC1 antibody); assay type: biochemical; settings: on target activity in vitro; read-out: IC50 In vitro
T1 construct: GST (N, cleaved yes); made in house; host or cells: E. coli EcAR7 with Sep-OTS

SPAK [2] = molecular target: T1, SPAK; assay: as above; assay type: biochemical; settings: analogues of (6a)
Protocol: The GlaxoSmithKline published kinase inhibitor set, PKIS (Dranchak, et al., 2013, Plos One 8), was used to evaluate potential SPAK drug inhibitor candidates. The pilot inhibitor screen tested the capability of 320 compounds to inhibit the kinase activity of purified co-expressed SP382 WNK1 (1-661)/WT SPAK using an ELISA based screen monitoring a reduction in NKCC1 phosphorylation with the NKCC1 phospho-specific antibody, T^PNKCC1. 10 nL of each inhibitor compound (final concentration 20 μM) or DMSO vehicle controls were added to dry 384 well-flat bottom low volume non-binding assay plates (Corning) using an Echo 550 Acoustic dispenser (Labcyte). […] The assay plates were centrifuged at 200 g for 1 min, then incubated at RT for 30 min. Following inhibitor incubation, the kinase reaction was initiated with 1 μL of 50 μM ATP (final concentration 10 uM) or 1 μL of Kinase reaction buffer for negative controls and reacted for 1 hr at 37° C. The reaction was then quenched with 5 μL Kinase Stop buffer (100 mM Tris pH 8, 300 mM NaCl, 40 mM EDTA) and incubated for 1 min with shaking at 450 rpm. 2 μL of each quenched reaction was added to 18 μL TBS (50 mM Tris pH 8, 150 mM NaCl) in white 384-well Nunc Maxisorp plates (Thermo Scientific) using a PlateMate Plus (Thermo Scientific). The plate was shaken for 1 min at 450 rpm, sealed and incubated at 4° C. overnight to allow the protein contents of the reaction to bind to the Maxisorp plate. The next morning the solution was removed, and the plates were then subjected to 3 washes in TBST (50 mM Tris pH 7.5, 150 mM NaCl. 0.05% Tween 20) for 5 min each wash with shaking at 400 rpm. The plates were blocked with TBST buffer containing 3% BSA (w/v) at RT for 2 hrs at RT. The blocking buffer was removed, and the plates were immunoblotted with 1:50,000 dilution of T^PNKCC1 in blocking buffer for 2 hrs at RT. The plates were then subjected to 3 washes in TBST for 5 min each wash with shaking at 400 rpm, followed by incubating with 1:10,000 dilution of 2° DAR-HPR antibody in blocking buffer for 1 hr at RT. The plates were washed again 3 times in TBST for 5 min each wash with shaking at 400 rpm. Signal was detected by SuperSignal ELISA Pico Chemiluminescent substrate (ThermoScientific), and read on an EnVision multi-label plate reader (Perkin-Elmer).

pancreatic cancer cells = assay: Pancreatic cancer cell migration in vitro; assay type: cell-based; settings: FIG. 36
mDCT15 cells = assay: Cell volume of mDCT15 cells by microscopic imaging; assay type: cell-based, mouse; settings: 40 μM, four-hour time course
Protocol: FIGS. 12A-12F illustrate the finding that (7a) depletes phosphorylated NKCC1 and reduces cell volume in mDCT15 cells. FIG. 12A: Structures of (7a) and analog (7b). FIG. 12B: In vitro dose-dependent inhibition comparing (7a) and (7b) evaluated by western blot using T^PNKCC1. FIG. 12C: Western blot analysis of NKCC1 phospho-depletion in mDCT15 cells under various conditions. FIG. 12D: mDCT15 cells were incubated with 40 μM (7a), 40 μM Cabozantinib (XL-184), or equivalent volume of DMSO vehicle for 1 hr, 2 hr, 3 hr, and 4 hr. NKCC1 phosphorylation was monitored using the T^PNKCC1 antibody and compared to total NKCC1. FIG. 12E: HEK 293 induced to express KCC were incubated with 40 μM (7a), 40 μM Cabozantinib (XL-184), or equivalent volume of DMSO vehicle for 1 hr, and 2 hr time points. KCC phosphorylation was monitored using the T^PKCC antibody and compared to total KCC using C-Myc antibody. FIG. 12F: mDCT15 cells were incubated with 40 μM (7a), 40 μM Cabozantinib (XL-184), or equivalent volume of DMSO vehicle for a 1 hr, 2 hr, 3 hr, and 4 hr time course. After incubation the cells were imaged using 20× bright field microscopy. 1 hr and 4 hr time points are shown.
FIG. 13 comprises images of mDCT15 cells incubated with 40 μM (7a) 40 μM, Cabozantinib (XL-184), or equivalent volume of DMSO vehicle for a 1 hr, 2 hr, 3 hr, and 4 hr time course (partially shown in FIG. 12F). […]

[3] = system: NKCC1 phosphorylation in mDCT15 cells; assay: NKCC1 phosphorylation in mDCT15 cell lysates (T^PNKCC1 immunoblot); assay type: cell-based, mouse; settings: 40 μM, span of 4 hrs
Protocol: Mouse distal convoluted tubule (mDCT15) cells (Naguro, et al., 2012, Nature comm. 3:1285) were cultured in DMEM/Ham's F-12 media supplemented with 1% PSN and 5% FBS. Before each set of experiments 2×10^5 cells/well were plated in 24-well plates treated with 100 ug/mL poly-D-lysine and grown at 37° C. in 5% CO2 to ˜95% confluency. […] […] […] All media was removed and 100 μL of cell culture lysis buffer (100 mM Tris/HCl pH 7.4, 300 mM NaCl, 5 mM EDTA, 5 mM EGTA, 2 mM DTT, 10% glycerol, 2% triton X-100, Roche protease inhibitor, and phosphatase inhibitor cocktail 3 (Sigma-Aldrich St. Louis, MO)) was added to each well, transferred to a clean 1.5 mL Eppendorf tube, and incubated on ice for a minimum of 10 min. The cell lysates were centrifuged at 21,000 G for 10 min. The clarified lysate was stored at −80° C.
Protein samples were subjected to electrophoresis on polyacrylamide gels and transferred to PVDF membranes. The membranes were incubated overnight in TBST blocking buffer containing 5% milk (w/v) (for the antibodies raised in sheep) or 3% BSA (w/v) (for all other antibodies). […] Signal was detected by enhanced chemiluminescence (Bio-rad) imaged on a ChemiDoc™ XRS+ CCD camera.

Row | IC50 (SPAK [1]) [µM] | SPAK inhibition (SPAK [2]) | Structure (SMILES) | Activity in GMB612, 0.2 μM (GBM612 cells) | Activity in GMB612, 2 μM (GBM612 cells) | pancreatic cancer cell migration (pancreatic cancer cells) | Cell volume change, mDCT15 cells (mDCT15 cells) | NKCC1 phosphorylation over time without osmotic triggers [3]
1 | 12 |  | COc1ccc(Nc2ncc(C#N)c(Nc3ccccc3-c3nc[nH]n3)n2)cc1N1CCN(C)CC1 [(6g), 4-((2-(1H-1,2,4-triazol-3-yl)phenyl)amino)-2-((4-methoxy-3-(4-methylpiperazin-1-yl)phenyl)amino)pyrimidine-5-carbonitrile] | No | No |  |  | 
2 | 5.2 | measurable SPAK inhibition | CNC(=O)c1ccccc1Nc1nc(Nc2ccc(OC)c(N3CCN(C)CC3)c2)ncc1C#N [(6d), 2-((5-cyano-2-((4-methoxy-3-(4-methylpiperazin-1-yl)phenyl)amino)pyrimidin-4-yl)amino)-N-methylbenzamide] | No | Yes |  |  | 
3 | 0.05 | measurable SPAK inhibition | COc1ccc(Nc2ncc(C#N)c(Nc3cccc4c3C(=O)NC4)n2)cc1N1CCN(C)CC1 [(6b)] | Yes | Yes |  |  | 
4 | 3.5 | measurable SPAK inhibition | COc1ccc(Nc2ncc(C#N)c(Nc3ccccc3-c3nnn[nH]3)n2)cc1N1CCN(C)CC1 [(6f), 4-((2-(1H-tetrazol-5-yl)phenyl)amino)-2-((4-methoxy-3-(4-methylpiperazin-1-yl)phenyl)amino)pyrimidine-5-carbonitrile] | No | Yes |  |  | 

Continued, compound first:

Row | Structure (SMILES) | IC50 (SPAK [1]) [µM] | SPAK inhibition (SPAK [2]) | Activity in GMB612, 0.2 μM (GBM612 cells) | Activity in GMB612, 2 μM (GBM612 cells) | pancreatic cancer cell migration (pancreatic cancer cells) | Cell volume change, mDCT15 cells (mDCT15 cells) | NKCC1 phosphorylation over time without osmotic triggers [3]
5 | CONC(=O)c1ccccc1Nc1nc(Nc2ccc(OC)c(N3CCN(C)CC3)c2)ncc1C#N [(6e), 2-((5-cyano-2-((4-methoxy-3-(4-methylpiperazin-1-yl)phenyl)amino)pyrimidin-4-yl)amino)-N-methoxybenzamide] | 2.6 | measurable SPAK inhibition | No | Yes |  |  | 
6 | Nc1ccn([C@@H]2O[C@H](CO)[C@@H](O)C2(F)F)c(=O)n1 [Gemcitabine, reference compound] |  |  |  |  | does not |  | 
7 | COc1ccc(Nc2ncc(C#N)c(Nc3ccccc3-c3ncco3)n2)cc1N1CCN(C)CC1 [(6c), 2-((4-methoxy-3-(4-methylpiperazin-1-yl)phenyl)amino)-4-((2-(oxazol-2-yl)phenyl)amino)pyrimidine-5-carbonitrile] | 9 |  | No | No |  |  | 
8 | COc1cc2nccc(Oc3ccc(NC(=O)C4(C(=O)Nc5ccc(F)cc5)CC4)cc3)c2cc1OC [XL-184, Cabozantinib malate] |  |  |  |  |  | neither XL-184 nor Vehicle had any detectable change | no discernable effect on NKCC1 phosphorylation
